Measured values as given in patent US20240294551A1 (AMGEN INC., priority 2022, published 2024).
Counter-ions that a name gives are not always drawn. Like-named read-outs stand apart in the source and are kept apart here.

Columns and labels:
[1] = 16-membered ring
[2] = target: His-tagged KRAS G12D protein (Homo sapiens (Human), UniProt P01116, G12D); test: KRAS G12D TR-FRET Assay; type: binding; details: read-out: KRAS G12D Binding IC50
Summary of the method: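 His-tagged KRAS G12D (diluted to 20 nM in pH 7.4 HEPES buffer with 10 mM MgCl2 and 10 μM GDP) was preincubated with titrated compound for 30 min at room temperature. Biotinylated KRPep-2d peptide (diluted to 20 nM) was then added for 1 h, and displacement was monitored by TR-FRET.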

[3] = tested on: Phosphorylation of ERK1/2 in AsPC-1 cells; test: Phospho-ERK1/2 MSD Assay; type: cell-based, human; details: read-out: 2 h p-ERK (AsPC-1 cells), IC50
Summary of the method: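 Read-out: MSD electrochemiluminescent detection of phosphorylated ERK1/2 in whole-cell lysates, fitted to a 4-parameter logistic curve for IC50. Prior to lysis, AsPC-1 cells (25,000 per well) received a 2 h compound dose-response at 37 °C.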

AsPC-1 cells = test: AsPC-1 CTG Assay (CellTiter-Glo cell viability); type: cell-based, human; details: AsPC-1, 72 h, first value of the cell, read-out: G12D/C/V Cell Proliferation CTG (72 h) AsPC-1
Summary of the method: (§1)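 Human pancreatic AsPC-1 or colon SW620 cells in RPMI 1640 with 10% FBS, seeded overnight, then exposed to serially diluted compound for 72 h at 37 °C. CellTiter-Glo luminescence normalized to DMSO control; IC50 from a 4-parameter logistic model.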

[4] = target: GDP-bound KRAS protein (aa 1-169), containing both G12D and C118A amino acid substitutions (Homo sapiens (Human), UniProt P01116, C118A/G12D); test: KRAS G12D Coupled Nucleotide Exchange Assay; type: biochemical; details: read-out: KRAS G12D Coupled Exchange IC50
Chain of GDP-bound KRAS protein (aa 1-169), containing both G12D and C118A amino acid substitutions (P01116 other isoform, or with tags, fused parts or gaps G12D/C118A): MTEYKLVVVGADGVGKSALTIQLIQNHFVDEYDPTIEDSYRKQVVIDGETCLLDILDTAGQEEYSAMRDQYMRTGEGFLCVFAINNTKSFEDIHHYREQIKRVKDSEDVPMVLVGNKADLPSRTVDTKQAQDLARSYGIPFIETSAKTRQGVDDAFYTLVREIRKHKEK

SW620 cells = test: SW620 CTG Assay (CellTiter-Glo cell viability); type: cell-based, human; details: SW620, 72 h, third value of the cell, read-out: G12D/C/V Cell Proliferation CTG (72 h) SW620
Summary of the method: as §1

[5] = tested on: p-ERK in PANC 04.03 tumor-bearing mice; test: Tumor Pharmacodynamic Assay (p-ERK inhibition in PANC 04.03 tumors); type: in vivo; details: Mus musculus; PANC 04.03 tumor-bearing female athymic nude mice; single oral dose 100 mg/kg; tumors harvested 2 hr later; relative to vehicle group
Protocol: Tumor Pharmacodynamic Assays
Inhibitor pharmacodynamic effects were assessed in PANC 04.03 tumor-bearing mice. PANC 04.03 tumor cells (5.0E+06 cells) were injected subcutaneously into the flank of female athymic nude mice in a mixture with Matrigel (BD Bioscience). Mice received a single oral dose of either vehicle or inhibitor (100 mg/kg) when the average tumor size reached -300-600 mm^3 (n=3/group) and harvested 2 hours later. Tumor samples were collected, snap frozen, and processed for analysis by pulverizing with a cryoPREP® Dry Impactor (Covaris). Pulverized samples were resuspended in RIPA lysis buffer containing protease and phosphatase inhibitors and homogenized. Cleared lysates were analyzed using phospho-ERK1/2 and total ERK1/2 whole cell lysate kits (Meso Scale Discovery) according to the manufacturer's protocol. Phospho-ERK1/2 signal was normalized to total ERK1/2 signal for a given sample, and percent inhibition of p-ERK was calculated relative to the vehicle group.

MIA PaCa-2 cells = test: MIA PaCa-2 CTG Assay (CellTiter-Glo cell viability); type: cell-based, human; details: Homo sapiens; Mia PaCa-2, 72 h; second value of the cell; read-out: G12D/C/V Cell Proliferation CTG (72 h) Mia PaCa-2
Summary of the method: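 Human pancreatic carcinoma cells in RPMI 1640 with 10% FBS, seeded at 1.67E+04 cells/mL and left overnight, were treated with serially diluted compound for 72 h at 37° C, 5% CO2. Viability was read by CellTiter-Glo luminescence normalized to DMSO; IC50 came from a 4-parameter logistic fit.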

Chain of His-tagged KRAS G12D protein (P01116 other isoform, or with tags, fused parts or gaps G12D): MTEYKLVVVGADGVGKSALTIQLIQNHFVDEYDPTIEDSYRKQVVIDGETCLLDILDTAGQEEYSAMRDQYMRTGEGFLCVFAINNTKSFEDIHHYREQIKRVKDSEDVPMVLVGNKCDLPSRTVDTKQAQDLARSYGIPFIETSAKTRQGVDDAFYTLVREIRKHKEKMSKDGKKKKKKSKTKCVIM

| SMILES | IC50 [2] [nM] | IC50 ([3]; Homo sapiens, ASPC1, 2 h) [nM] | IC50 (AsPC-1 cells; Homo sapiens, ASPC1, 72 h) [nM] | IC50 [4] [nM] | inhibition in vivo at 100 mg/kg [5] [%] | IC50 (SW620 cells; Homo sapiens, SW-620) [nM] | IC50 (MIA PaCa-2 cells) [nM] | other results |
| --- | --- | --- | --- | --- | --- | --- | --- | --- |
| CC(C)(C)OC(=O)n1ncc2c3c(ccc21)OCCCC(=O)O[C@@H]1CCCN(C1)c1nc(OC[C@@]24CCCN2C[C@H](F)C4)nc2c(F)c-3ncc12 | – | – | – | – | – | – | – | ring closure, isolated yield ([1]; from CC(C)(C)OC(=O)n1ncc2c(-c3ncc4c(N5CCC[C@@H](OC(=O)CCCBr)C5)nc(OC[C@@]56CCCN5C[C@H](F)C6)nc4c3F)c(O)ccc21, ether bond, K2CO3, DMF, 17.5 mM): 24% |
| COCOc1cc2c3c(c(F)ccc3c1)CCCC(=O)N[C@]1(C)CCCN(C1)c1nc(OC)nc3c(F)c-2ncc13 | – | – | – | – | – | – | – | ring closure, yield after HPLC (from COCOc1cc(-c2ncc3c(N4CCC[C@@](C)(N)C4)nc(OC)nc3c2F)c2c(CCCC(=O)O)c(F)ccc2c1, amide bond, 16-membered ring, HATU/DIEA, then HCl/dioxane, DMF, 8.3 mM, 25.0 °C, 2 steps): 5% |
| O=C1CCCc2cccc3cc(O)cc(c23)-c2ncc3c(nc(OC[C@@]45CCCN4C[C@H](F)C5)nc3c2F)N2CCC[C@H](C2)N1 [Example 1, (15R)-31-Fluoro-8-(((2R,7aS)-2-fluorotetrahydro-1H-pyrrolo[1,2-a]pyrrol-7a(5H)-yl)methoxy)-27-hydroxy-3,7,9,11,16-pentaazahexacyclo[19.7.1.1˜2,6˜.1˜11,15˜.0˜5,10˜.0˜25,29˜]hentriaconta-1(28),2(31),3,5,7,9,21,23,25(29),26-decaen-17-one bis(2,2,2-trifluoroacetate)] | 5 | 196 | 1930 | 4 | – | – | – | ring closure, yield after HPLC (from N[C@@H]1CCCN(c2nc(OC[C@@]34CCCN3C[C@H](F)C4)nc3c(F)c(-c4cc(O)cc5cccc(CCCC(=O)O)c45)ncc23)C1, amide bond, 16-membered ring, HATU/DIEA, then NH3/MeOH, DMF, 8.9 mM, 25.0 °C, 1.0 h): 7% |
| Cc1cc2c(cnn2C2CCCCO2)c2c1CC=CCOC[C@@H]1CCCN(C1)c1nc(OC[C@@]34CCCN3C[C@H](F)C4)nc3c(F)c-2ncc13 (mixture of isomers) | – | – | – | – | – | – | – | ring closure, isolated yield ([1]; from C=CCOC[C@@H]1CCCN(c2nc(OC[C@@]34CCCN3C[C@H](F)C4)nc3c(F)c(-c4c(CC=C)c(C)cc5c4cnn5C4CCCCO4)ncc23)C1, rcm bond, Hoveyda-Grubbs II/TsOH, 1,2-dichloroethane, 2.1 mM, 80.0 °C): 21% |
| C[C@@]12CCCN(C1)c1nc(OC[C@@]34CCCN3C[C@H](F)C4)nc3c(F)c(ncc13)-c1cccc3c1N(CCCC(=O)N2)CCC3 [Example 13, (15R)-31-Fluoro-8-(((2R,7aS)-2-fluorotetrahydro-1H-pyrrolo[1,2-a]pyrrol-7a(5H)-yl)methoxy)-15-methyl-3,7,9,11,16,21-hexaazahexacyclo[19.7.1.1˜2,6˜.1˜11,15˜.0˜5,10˜.0˜25,29˜]hentriaconta-1(29),2(31),3,5,7,9,25,27-octaen-17-one bis(2,2,2-trifluoroacetate)] | 238 | – | – | 342 | – | – | – | ring closure, yield after HPLC (from C[C@@]1(N)CCCN(c2nc(OC[C@@]34CCCN3C[C@H](F)C4)nc3c(F)c(-c4cccc5c4N(CCCC(=O)O)CCC5)ncc23)C1, amide bond, 16-membered ring, HATU/TEA, DCM/THF/DMA, 0.98 mM, 25.0 °C): 33% |
| Fc1c2ncc3c(nc(OC[C@@]45CCCN4C[C@H](F)C5)nc13)N1CCCC3(CC(C3)OCCCCc3c(Cl)cc4[nH]ncc4c3-2)C1 | – | – | – | – | – | – | – | ring closure, yield after HPLC (from Fc1c(-c2c(CCCCOC3CC4(CCCNC4)C3)c(Cl)cc3[nH]ncc23)ncc2c(OCC(F)(F)F)nc(OC[C@@]34CCCN3C[C@H](F)C4)nc12, snar bond, 17-membered ring, Cs2CO3, MeCN/DMF, 5.0 mM, 80.0 °C): 5% |
| Fc1c2ncc3c(nc(OC[C@@]45CCCN4C[C@H](F)C5)nc13)N1CCO[C@@H](COCCCCc3c(Cl)cc4[nH]ncc4c3-2)C1 [Example 135, (17R)-9-Chloro-30-fluoro-24-(((2R,7aS)-2-fluorotetrahydro-1H-pyrrolo[1,2-a]pyrrol-7a(5H)-yl)methoxy)-15,18-dioxa-5,6,21,23,25,29-hexaazahexacyclo[24.3.1.1˜17,21.0˜2,10˜.0˜3,7˜.0˜22,27˜]hentriaconta-1(30),2,4,7,9,22,24,26,28-nonaene trifluoroacetate] | 3 | – | – | 2 | – | – | – | IC50 ([3]; 2 h): 17 nM; IC50 (AsPC-1 cells): 250 nM; IC50 (SW620 cells): 55.1 nM; ring closure, yield after HPLC (from Oc1nc(OC[C@@]23CCCN2C[C@H](F)C3)nc2c(F)c(-c3c(CCCCOC[C@H]4CNCCO4)c(Cl)cc4[nH]ncc34)ncc12, snar bond, 16-membered ring, BroP/DIEA, MeCN/DMSO, 4.7 mM, 25.0 °C): 39% |
| O=C1OCCCc2c(Cl)cc3[nH]ncc3c2-c2ncc3c(nc(OC[C@@]45CCCN4C[C@H](F)C5)nc3c2F)N2CCOC[C@H](C2)O1 [Example 99, (26S)-18-Chloro-32-fluoro-4-(((2R,7aS)-2-fluorotetrahydro-1H-pyrrolo[1,2-a]pyrrol-7a(5H)-yl)methoxy)-23,25,28-trioxa-1,3,5,9,14,15-hexaazahexacyclo[24.4.1.1˜6,10˜.0˜2,7˜.0˜11,19˜.0˜12,16˜]dotriaconta-2,4,6,8,10(32),11,13,16,18-nonaen-24-one] | 3 | 2 | 30 | 2 | 91 | 10 | 1 | – |
| CSc1nc2c3cnc(c(C)c3n1)-c1cc(O)cc3ccc(F)c(c13)CCCC(=O)N[C@]1(C)CCCN2C1 | – | – | – | – | – | – | – | ring closure, yield after HPLC (from CSc1nc(N2CCC[C@@](C)(N)C2)c2cnc(-c3cc(O)cc4ccc(F)c(CCCC(=O)O)c34)c(C)c2n1, amide bond, 16-membered ring, HATU, then Me2NH, DCM/DMA/DMF, 5.6 mM, 25.0 °C, 4.0 h): 32% |
| Cc1cc2[nH]ncc2c2c1CCOC(=O)O[C@H]1C[C@@]3(CCCN(C3)c3nc(OC[C@@]45CCCN4C[C@H](F)C5)nc4c(F)c-2ncc34)C1 [Example 194, (1S,3R)-32-fluoro-24-(((2R,7aS)-2-fluorotetrahydro-1H-pyrrolo[1,2-a]pyrrol-7a(5H)-yl)methoxy)-10-methyl-4,6-dioxa-13,14,19,23,25,27-hexaazaheptacyclo[25.3.1.1~1,3~.1~18,22~.0~9,17~.0~12,16~.0~21,26~]tritriaconta-9,11,14,16,18(32),19,21,23,25-nonaen-5-one] | 5 | 1.3 | 6 | 3 | 88 | 4 | 7 | – |
| Cc1cc2[nH]ncc2c2c1CCCOC(=O)O[C@]1(C)COCCN(C1)c1nc(OC[C@@]34CCCN3C[C@H](F)C4)nc3c(F)c-2ncc13 [Example 190, (26S)-32-fluoro-4-(((2R,7aS)-2-fluorotetrahydro-1H-pyrrolo[1,2-a]pyrrol-7a(5H)-yl)methoxy)-18,26-dimethyl-23,25,28-trioxa-1,3,5,9,14,15-hexaazahexacyclo[24.4.1.1~6,10~.0~2,7~.0~11,19~.0~12,16~]dotriaconta-2,4,6,8,10(32),11,13,16,18-nonaen-24-one] | 4 | 4.5 | 5 | 2 | 86 | 4 | 4 | – |
| C[C@@]12COCCN(C1)c1nc(OC[C@@]34CCCN3C[C@H](F)C4)nc3c(F)c(ncc13)-c1c(c(Cl)cc3[nH]ncc13)CCCOC(=O)O2 [Example 191, (26S)-18-chloro-32-fluoro-4-(((2R,7aS)-2-fluorotetrahydro-1H-pyrrolo[1,2-a]pyrrol-7a(5H)-yl)methoxy)-26-methyl-23,25,28-trioxa-1,3,5,9,14,15-hexaazahexacyclo[24.4.1.1~6,10~.0~2,7~.0~11,19~.0~12,16~]dotriaconta-2,4,6,8,10(32),11,13,16,18-nonaen-24-one] | 3 | 1.9 | 8 | 2 | 91 | 2 | 1 | – |
